Here are results for one substance from patent US20030124655A1, “Receptor protein specifically recognizing bacterial dna” (priority 2000, published 2003).

Read-outs that look alike come from different tables or passages of the source.

One data set deals with IRAK. Put plainly: IRAK activity in macrophages, in vitro kinase assay. Format: cell-based, mouse. How it is done:
(§1) As described in a reference (Immunity 11, 115-122, 1999), the JNK activity and IRAK activity were measured by in vitro kinase assay using GST-c-Jun fusion protein (GST-c-Jun) as a substrate (top figures of FIG. 10 and FIG. 11; GST-c-Jun, Auto).
(§2) The cell lysates were separated by SDS-polyacrylamide gel electrophoresis to transfer them onto a nitrocellulose membrane and blotted the membrane with anti-JNK antibody (Santa Cruz) or anti-IRAK antibody (Transduction Laboratories) to visualize using an enhanced chemiluminescent system (Dupont) (bottom figures of FIG. 10 and FIG. 11; WB).

For another data set, the system named is B cells. Nature of the data set: MHC class II expression on the surface of B cells. The format is cell-based, mouse. To be noted: B cells from wild-type mice.
In the next data set the test system is JNK. Put plainly: JNK activity in macrophages, in vitro kinase assay. Format: cell-based, mouse. The protocol: as §1, §2
For data set [1] the following is noted: cited from earlier work.
For another data set, the system named is spleen cells. Put plainly: Spleen cell proliferation, [3H]-timidine uptake. Format: cell-based, mouse.
The test system of data set [2] is dendritic cells derived from bone marrow. Nature of the data set: IL-12 p40 production in bone marrow-derived dendritic cells (ELISA). To be noted: dendritic cells from wild-type mice; 0.1 μM, 2 days. The format is cell-based, mouse.
The test system of another data set is NF-κB. Put plainly: NF-κB DNA-binding activity in peritoneal macrophages (gel shift). To be noted: 1.0 μM.
Where [3] appears, read: macrophages from TLR9 knockout mice.
Setting [4] is: macrophages from wild-type mice.

Procedure for NF-κB: 2 ml of 4% thioglycolic acid medium (DIFCO) was injected to each peritoneum of wild-type mice and TLR9 knockout mice (TLR9^−/−), peritoneal exudation cells were isolated from peritonea from each mouse after 3 days, the cells were cultured in RPMI1640 medium to which 10% of fetal bovine serum (GIBCO) was added at 37° C. for 2 hours, and remove the unattached cells by washing with ice-chilled Hank's buffered salt solution (HBSS; GIBCO), and the attached cells were used as peritoneal macrophages in the following experiments.

“TCC-ATG-ACG-TTC-CTG-ATG-CT (DNA TCCATGACGTTCCTGATGCT; listed as DNA, chemistry not given here) [CpG ODN]”: the IRAK activation result is “does not activate” in the data set with IRAK (setting [3]) and “activates” in the data set with IRAK (setting [4]). Also, in the data set with B cells, the “amount of expressing MHC class II on the surface of B cells” value is listed as “increased”. Further, the JNK activation entry in the data set on JNK (setting [3]) is “does not activate”; in the data set with JNK (setting [4]), “activates”. For the same substance, the “response to CpG ODN” value in data set [1] (MyD88 knockout mice) is “do not show response”; in data set [1] (TLR2 knockout mice) it was “show normal response”; in data set [1] (TLR4 knockout mice), “show normal response”. For the same substance, the “cell proliferating reaction ([3H]-timidine uptake)” value with spleen cells (spleen cells from TLR9 knockout mice, any concentration) was “did not show any cell proliferating reaction”; in the data set with spleen cells (spleen cells from wild-type mice), “promote cell proliferating reactions depending on the amount”. Further, in data set [2], the “IL-12 p40 production” value is listed as “produced IL-12”. For the same substance, the results for the “NF-κB DNA-binding activity” value in the data set on NF-κB (setting [3]) and with NF-κB (setting [4]) were “did not increase NF-κB DNA-binding activity” and “increased NF-κB DNA-binding activity”, respectively.
